Results as given in ChEMBL document CHEMBL4400561, “Isolation, structural elucidation, and insights into the anti-inflammatory effects of triterpene saponins from the leaves of Stauntonia hexaphylla” (Bioorg Med Chem Lett, 2019).
pIC50: −log10 of the molar value.

Legend:
RAW264.7 [1] = test: Cytotoxicity against mouse RAW264.7 cells at anti-inflammatory IC50 after 19 hrs by MTT assay; format: cell-based; conditions: raw264.7, 19 h
RAW264.7 [2] = test: Anti-inflammatory activity in mouse LPS-stimulated RAW264.7 cells assessed as decrease in IL6 levels preincubated for 1 hr followed by LPS-stimulation and measured after 12 hrs by ELISA; format: functional, cell-based
RAW264.7 [3] = test: Anti-inflammatory activity in mouse RAW264.7 cells assessed as inhibition of LPS-induced NO production preincubated for 1 hr followed by LPS-stimulation and measured after 18 hrs by Griess reagent-based assay; format: functional, cell-based
RAW264.7 [4] = test: Anti-inflammatory activity in mouse LPS-stimulated RAW264.7 cells assessed as decrease in COX2 protein levels preincubated for 1 hr followed by LPS-stimulation and measured after 16 hrs by Western blot analysis; format: functional, cell-based
RAW264.7 [5] = test: Anti-inflammatory activity in mouse LPS-stimulated RAW264.7 cells assessed as decrease in iNOS protein levels preincubated for 1 hr followed by LPS-stimulation and measured after 16 hrs by Western blot analysis; format: functional, cell-based
RAW264.7 [6] = test: Anti-inflammatory activity in mouse LPS-stimulated RAW264.7 cells assessed as decrease in IL1beta levels preincubated for 1 hr followed by LPS-stimulation and measured after 12 hrs by ELISA; format: functional, cell-based
RAW264.7 [7] = test: Anti-inflammatory activity in mouse LPS-stimulated RAW264.7 cells assessed as decrease in PGE2 levels at preincubated for 1 hr followed by LPS-stimulation and measured after 12 hrs by ELISA; format: functional, cell-based
RAW264.7 [8] = test: Anti-inflammatory activity in mouse LPS-stimulated RAW264.7 cells assessed as decrease in TNFalpha levels preincubated for 1 hr followed by LPS-stimulation and measured after 12 hrs by ELISA; format: functional, cell-based

- pIC50 (RAW264.7 [3]): 6.23
Structure (SMILES): C[C@@H]1O[C@@H](O[C@H]2[C@H](O[C@H]3CC[C@]4(C)[C@H]5CC=C6[C@@H]7CC(C)(C)CC[C@]7(C(=O)O)CC[C@@]6(C)[C@]5(C)CC[C@H]4C3(C)C)OC[C@H](O[C@@H]3O[C@H](CO)[C@@H](O)[C@H](O)[C@H]3O)[C@@H]2O)[C@H](O)[C@H](O)[C@H]1O [HEDERACOLCHISIDE A1]
- Activity (RAW264.7 [1]): Non-Toxic
- inhibition (RAW264.7 [2]): Dose-dependent effect
- inhibition (RAW264.7 [4]): Dose-dependent effect
- inhibition (RAW264.7 [5]): Dose-dependent effect
- inhibition (RAW264.7 [6]): Dose-dependent effect
- inhibition (RAW264.7 [7]): Dose-dependent effect
- inhibition (RAW264.7 [8]): Dose-dependent effect
